{"source": "patent US12410208B2", "about": "“(2-acetamidyl)thio-beta-D-galactopyranoside derivatives” (Idorsia Pharmaceuticals Ltd, priority 2020, dated 2025)", "key": {"[1]": {"target": "biotinylated human Gal-3 (hGal-3) (Homo sapiens, UniProt P17931)", "sequence (P17931 whole entry)": "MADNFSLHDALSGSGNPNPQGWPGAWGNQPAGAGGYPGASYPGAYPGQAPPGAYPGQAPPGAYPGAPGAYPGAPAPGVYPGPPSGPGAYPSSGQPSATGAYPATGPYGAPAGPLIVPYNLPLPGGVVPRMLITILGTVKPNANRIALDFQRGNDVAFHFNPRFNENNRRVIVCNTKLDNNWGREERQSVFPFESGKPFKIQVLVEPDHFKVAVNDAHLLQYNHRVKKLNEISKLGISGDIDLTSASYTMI", "experiment": "Competitive binding assay: biotinylated hGal-3 binding to microplate-adsorbed asialofetuin (ASF), spectrophotometric", "procedure,_shortened": "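Competitive binding of biotinylated hGal-3 to plate-adsorbed asialofetuin was measured with serially diluted compounds over 3 h at 4° C. Bound protein was detected with streptavidin-peroxidase and ABTS substrate by absorbance. IC50 values are means of several measurements.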"}, "[2]": {"target": "human Gal-1 (hGal-1) (Homo sapiens, UniProt P09382)", "sequence (P09382 whole entry)": "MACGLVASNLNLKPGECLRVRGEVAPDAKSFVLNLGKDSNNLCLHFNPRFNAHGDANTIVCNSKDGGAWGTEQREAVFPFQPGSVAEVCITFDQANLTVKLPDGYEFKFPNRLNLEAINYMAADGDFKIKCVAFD", "experiment": "Competitive binding assay: biotinylated hGal-1 binding to microplate-adsorbed asialofetuin (ASF), spectrophotometric", "details": "hGal-1 binding to asialofetuin; Table 15; R and S epimers of selected Examples also listed; read-out: IC50 (Galectin-1 inhibition)", "procedure,_shortened": "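Biotinylated hGal-1 (300-1000 ng/mL) incubated with compound on asialofetuin-coated plates 3 hours at 4 °C, washed, then streptavidin-peroxidase (80 ng/mL) 1 hour at 4 °C. ABTS substrate read spectrophotometrically; IC50 reported as mean of several measurements.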"}, "[3]": {"details": "Gal-3 inhibition, Table 7, read-out: IC50"}, "[4]": {"details": "Table 13, hGal-3, read-out: IC50 (Gal-3 inhibition)"}, "[5]": {"details": "Table 11, hGal-3, read-out: IC50 (Gal-3 inhibition)"}}, "note": "pIC50: −log10 of the molar value. Where two headings read alike, the source gives them in different places."}
{"smiles": "Cn1ccc(C(O)C(S[C@@H]2O[C@H](CO)[C@H](O)[C@H](n3cc(-c4cc(F)c(F)c(F)c4)nn3)[C@H]2O)C(=O)N2CCC2)n1", "note": "(stereo partly drawn) [Example 2.65.206., 1-(Azetidin-1-yl)-2-(((2S,3R,4S,5R,6R)-3,5-dihydroxy-6-(hydroxymethyl)-4-(4-(3,4,5-trifluorophenyl)-1H-1,2,3-triazol-1-yl)tetrahydro-2H-pyran-2-yl)thio)-3-hydroxy-3-(1-methyl-1H-pyrazol-3-yl)propan-1-one]", "values": [{"measurement": "pIC50", "setting": "[1]; [3]", "result": 5.98}, {"measurement": "pIC50", "setting": "[2]", "result": 5.14}]}
{"smiles": "CN(CC1CC1)C(=O)C(S[C@@H]1O[C@H](CO)[C@H](O)[C@H](n2cc(-c3cc(F)c(F)c(F)c3)nn2)[C@H]1O)C(O)c1ccn(C)n1", "note": "(stereo partly drawn) [Example 2.65.218., N-(cyclopropylmethyl)-2-(((2S,3R,4S,5R,6R)-3,5-dihydroxy-6-(hydroxymethyl)-4-(4-(3,4,5-trifluorophenyl)-1H-1,2,3-triazol-1-yl)tetrahydro-2H-pyran-2-yl)thio)-3-hydroxy-N-methyl-3-(1-methyl-1H-pyrazol-3-yl)propanamide]", "values": [{"measurement": "pIC50", "setting": "[1]; [3]", "result": 6.16}, {"measurement": "pIC50", "setting": "[2]", "result": 5.51}]}
{"smiles": "CO[C@@H]1[C@@H](n2cc(-c3cc(F)c(F)c(F)c3)nn2)[C@@H](O)[C@@H](CO)O[C@H]1SC(C(=O)N1CCC(F)(F)CC1)C1(O)CCC2(CC2)CC1", "note": "(stereo partly drawn) [Example 2.67.226.1., 1-(4,4-Difluoropiperidin-1-yl)-2-(((2S,3R,4S,5R,6R)-5-hydroxy-6-(hydroxymethyl)-3-methoxy-4-(4-(3,4,5-trifluorophenyl)-1H-1,2,3-triazol-1-yl)tetrahydro-2H-pyran-2-yl)thio)-2-(6-hydroxyspiro[2.5]octan-6-yl)ethan-1-one]", "values": [{"measurement": "pIC50", "setting": "[1]; [4]", "result": 6.92}, {"measurement": "pIC50", "setting": "[2]", "result": 6.77}]}
{"smiles": "CO[C@@H]1[C@@H](n2cc(-c3cc(F)c(F)c(F)c3)nn2)[C@@H](O)[C@@H](CO)O[C@H]1SC(C(=O)N1CCC(F)(F)CC1)C1(O)CCC(C)(C)CC1", "note": "(stereo partly drawn) [Example 2.68.226.I., 1-(4,4-Difluoropiperidin-1-yl)-2-(1-hydroxy-4,4-dimethylcyclohexyl)-2-(((2S,3R,4S,5R,6R)-5-hydroxy-6-(hydroxymethyl)-3-methoxy-4-(4-(3,4,5-trifluorophenyl)-1H-1,2,3-triazol-1-yl)tetrahydro-2H-pyran-2-yl)thio)ethan-1-one]", "values": [{"measurement": "pIC50", "setting": "[1]; [4]", "result": 7.00}, {"measurement": "pIC50", "setting": "[2]", "result": 6.72}]}
{"smiles": "CO[C@@H]1[C@@H](n2cc(-c3cc(F)c(F)c(F)c3)nn2)[C@@H](O)[C@@H](CO)O[C@H]1S[C@@H](C(=O)N1CCC(F)(F)CC1)C1(O)CCC2(CCC2)CC1", "note": "[Example 2.69.226R.I., (R)-1-(4,4-Difluoropiperidin-1-yl)-2-(((2S,3R,4S,5R,6R)-5-hydroxy-6-(hydroxymethyl)-3-methoxy-4-(4-(3,4,5-trifluorophenyl)-1H-1,2,3-triazol-1-yl)tetrahydro-2H-pyran-2-yl)thio)-2-(7-hydroxyspiro[3.5]nonan-7-yl)ethan-1-one]", "values": [{"measurement": "pIC50", "setting": "[1]; [4]", "result": 6.24}, {"measurement": "pIC50", "setting": "[2]", "result": 5.79}]}
{"smiles": "CO[C@@H]1[C@@H](n2cc(-c3cc(F)c(F)c(F)c3)nn2)[C@@H](O)[C@@H](CO)O[C@H]1S[C@H](C(=O)N1CCC(F)(F)CC1)C1(O)CCC2(CCC2)CC1", "note": "[Example 2.69.226S.I., (S)-1-(4,4-Difluoropiperidin-1-yl)-2-(((2S,3R,4S,5R,6R)-5-hydroxy-6-(hydroxymethyl)-3-methoxy-4-(4-(3,4,5-trifluorophenyl)-1H-1,2,3-triazol-1-yl)tetrahydro-2H-pyran-2-yl)thio)-2-(7-hydroxyspiro[3.5]nonan-7-yl)ethan-1-one]", "values": [{"measurement": "pIC50", "setting": "[1]; [4]", "result": 6.92}, {"measurement": "pIC50", "setting": "[2]", "result": 6.57}]}
{"smiles": "CO[C@@H]1[C@@H](n2cc(-c3cc(F)c(F)c(F)c3)nn2)[C@@H](O)[C@@H](CO)O[C@H]1SC(C(=O)N1CCC(F)(F)CC1)C1(O)CCC2(CC1)COC2", "note": "(stereo partly drawn) [Example 2.70.226.I., 1-(4,4-Difluoropiperidin-1-yl)-2-(((2S,3R,4S,5R,6R)-5-hydroxy-6-(hydroxymethyl)-3-methoxy-4-(4-(3,4,5-trifluorophenyl)-1H-1,2,3-triazol-1-yl)tetrahydro-2H-pyran-2-yl)thio)-2-(7-hydroxy-2-oxaspiro[3.5]nonan-7-yl)ethan-1-one]", "values": [{"measurement": "pIC50", "setting": "[1]; [4]", "result": 6.96}, {"measurement": "pIC50", "setting": "[2]", "result": 6.70}]}
{"smiles": "CO[C@@H]1[C@@H](n2cc(-c3cc(F)c(F)c(F)c3)nn2)[C@@H](O)[C@@H](CO)O[C@H]1S[C@@H](C(=O)N1CCC(F)(F)CC1)C1(O)CCC2(CCCC2)CC1", "note": "[Example 2.71.226R.I., (R)-1-(4,4-Difluoropiperidin-1-yl)-2-(((2S,3R,4S,5R,6R)-5-hydroxy-6-(hydroxymethyl)-3-methoxy-4-(4-(3,4,5-trifluorophenyl)-1H-1,2,3-triazol-1-yl)tetrahydro-2H-pyran-2-yl)thio)-2-(8-hydroxyspiro[4.5]decan-8-yl)ethan-1-one]", "values": [{"measurement": "pIC50", "setting": "[1]; [4]", "result": 6.17}, {"measurement": "pIC50", "setting": "[2]", "result": 5.96}]}
{"smiles": "CO[C@@H]1[C@@H](n2cc(-c3cc(F)c(F)c(F)c3)nn2)[C@@H](O)[C@@H](CO)O[C@H]1S[C@H](C(=O)N1CCC(F)(F)CC1)C1(O)CCC2(CCCC2)CC1", "note": "[Example 2.71.226S.I., (S)-1-(4,4-Difluoropiperidin-1-yl)-2-(((2S,3R,4S,5R,6R)-5-hydroxy-6-(hydroxymethyl)-3-methoxy-4-(4-(3,4,5-trifluorophenyl)-1H-1,2,3-triazol-1-yl)tetrahydro-2H-pyran-2-yl)thio)-2-(8-hydroxyspiro[4.5]decan-8-yl)ethan-1-one]", "values": [{"measurement": "pIC50", "setting": "[1]; [4]", "result": 7.00}, {"measurement": "pIC50", "setting": "[2]", "result": 6.57}]}
{"smiles": "CO[C@@H]1[C@@H](n2cc(-c3cc(F)c(F)c(F)c3)nn2)[C@@H](O)[C@@H](CO)O[C@H]1SC(C(=O)N1CCC(F)(F)CC1)C1(O)CCC2(CCOCC2)CC1", "note": "(stereo partly drawn) [Example 2.72.226.I., 1-(4,4-Difluoropiperidin-1-yl)-2-(((2S,3R,4S,5R,6R)-5-hydroxy-6-(hydroxymethyl)-3-methoxy-4-(4-(3,4,5-trifluorophenyl)-1H-1,2,3-triazol-1-yl)tetrahydro-2H-pyran-2-yl)thio)-2-(9-hydroxy-3-oxaspiro[5.5]undecan-9-yl)ethan-1-one]", "values": [{"measurement": "pIC50", "setting": "[1]; [4]", "result": 7.22}, {"measurement": "pIC50", "setting": "[2]", "result": 6.92}]}
{"smiles": "CO[C@@H]1[C@@H](n2cc(-c3cc(F)c(F)c(F)c3)nn2)[C@@H](O)[C@@H](CO)O[C@H]1S[C@@H](C(=O)N1CCC(F)(F)CC1)C1(O)CCC2(CCOCC2)CC1", "note": "[Example 2.72.226R.I., (R)-1-(4,4-Difluoropiperidin-1-yl)-2-(((2S,3R,4S,5R,6R)-5-hydroxy-6-(hydroxymethyl)-3-methoxy-4-(4-(3,4,5-trifluorophenyl)-1H-1,2,3-triazol-1-yl)tetrahydro-2H-pyran-2-yl)thio)-2-(9-hydroxy-3-oxaspiro[5.5]undecan-9-yl)ethan-1-one]", "values": [{"measurement": "pIC50", "setting": "[1]; [4]", "result": 4.83}, {"measurement": "pIC50", "setting": "[2]", "result": 4.40}]}
{"smiles": "CO[C@@H]1[C@@H](n2cc(-c3cc(F)c(F)c(F)c3)nn2)[C@@H](O)[C@@H](CO)O[C@H]1S[C@H](C(=O)N1CCC(F)(F)CC1)C1(O)CCC2(CCOCC2)CC1", "note": "[Example 2.72.226S.I., (S)-1-(4,4-Difluoropiperidin-1-yl)-2-(((2S,3R,4S,5R,6R)-5-hydroxy-6-(hydroxymethyl)-3-methoxy-4-(4-(3,4,5-trifluorophenyl)-1H-1,2,3-triazol-1-yl)tetrahydro-2H-pyran-2-yl)thio)-2-(9-hydroxy-3-oxaspiro[5.5]undecan-9-yl)ethan-1-one]", "values": [{"measurement": "pIC50", "setting": "[1]; [4]", "result": 7.40}, {"measurement": "pIC50", "setting": "[2]", "result": 7.00}]}
{"smiles": "CCN(C)C(=O)C(S[C@@H]1O[C@H](CO)[C@H](O)[C@H](n2cc(-c3cc(F)c(C)c(F)c3)nn2)[C@H]1O)C1(O)CCOCC1", "note": "(stereo partly drawn) [Example 3.41.203., 2-(((2S,3R,4S,5R,6R)-4-(4-(3,5-Difluoro-4-methylphenyl)-1H-1,2,3-triazol-1-yl)-3,5-dihydroxy-6-(hydroxymethyl)tetrahydro-2H-pyran-2-yl)thio)-N-ethyl-2-(4-hydroxytetrahydro-2H-pyran-4-yl)-N-methylacetamide]", "values": [{"measurement": "pIC50", "setting": "[1]; [5]", "result": 7.40}, {"measurement": "pIC50", "setting": "[2]", "result": 6.17}]}
{"smiles": "CCN(C)C(=O)C(S[C@@H]1O[C@H](CO)[C@H](O)[C@H](n2cc(-c3cc(F)cc(F)c3)nn2)[C@H]1O)C1(O)CCOCC1", "note": "(stereo partly drawn) [Example 10.41.203., 2-(((2S,3R,4S,5R,6R)-4-(4-(3,5-Difluorophenyl)-1H-1,2,3-triazol-1-yl)-3,5-dihydroxy-6-(hydroxymethyl)tetrahydro-2H-pyran-2-yl)thio)-N-ethyl-2-(4-hydroxytetrahydro-2H-pyran-4-yl)-N-methylacetamide]", "values": [{"measurement": "pIC50", "setting": "[1]; [5]", "result": 7.00}, {"measurement": "pIC50", "setting": "[2]", "result": 6.57}]}
{"smiles": "CCN(C)C(=O)C(S[C@@H]1O[C@H](CO)[C@H](O)[C@H](n2cc(-c3cc(F)c(Cl)c(F)c3)nn2)[C@H]1O)C1(O)CCOCC1", "note": "(stereo partly drawn) [Example 11.41.203., 2-(((2S,3R,4S,5R,6R)-4-(4-(4-Chloro-3,5-difluorophenyl)-1H-1,2,3-triazol-1-yl)-3,5-dihydroxy-6-(hydroxymethyl)tetrahydro-2H-pyran-2-yl)thio)-N-ethyl-2-(4-hydroxytetrahydro-2H-pyran-4-yl)-N-methylacetamide]", "values": [{"measurement": "pIC50", "setting": "[1]; [5]", "result": 7.52}, {"measurement": "pIC50", "setting": "[2]", "result": 6.49}]}
{"smiles": "CCN(C)C(=O)C(S[C@@H]1O[C@H](CO)[C@H](O)[C@H](n2cc(-c3ccc(Br)c(F)c3)nn2)[C@H]1O)C1(O)CCOCC1", "note": "(stereo partly drawn) [Example 12.41.203., 2-(((2S,3R,4S,5R,6R)-4-(4-(4-Bromo-3-fluorophenyl)-1H-1,2,3-triazol-1-yl)-3,5-dihydroxy-6-(hydroxymethyl)tetrahydro-2H-pyran-2-yl)thio)-N-ethyl-2-(4-hydroxytetrahydro-2H-pyran-4-yl)-N-methylacetamide]", "values": [{"measurement": "pIC50", "setting": "[1]; [5]", "result": 7.40}, {"measurement": "pIC50", "setting": "[2]", "result": 6.44}]}
{"smiles": "CCN(C)C(=O)C(S[C@@H]1O[C@H](CO)[C@H](O)[C@H](n2cc(-c3cc(F)cc(Cl)c3)nn2)[C@H]1O)C1(O)CCOCC1", "note": "(stereo partly drawn) [Example 13.41.203., 2-(((2S,3R,4S,5R,6R)-4-(4-(3-Chloro-5-fluorophenyl)-1H-1,2,3-triazol-1-yl)-3,5-dihydroxy-6-(hydroxymethyl)tetrahydro-2H-pyran-2-yl)thio)-N-ethyl-2-(4-hydroxytetrahydro-2H-pyran-4-yl)-N-methylacetamide]", "values": [{"measurement": "pIC50", "setting": "[1]; [5]", "result": 7.10}, {"measurement": "pIC50", "setting": "[2]", "result": 6.89}]}
